Laboratory results as given in patent US20240024515A1, “COMBINATION TREATMENT” (priority 2022, published 2024).
Where two headings read alike, the source gives them in different places.

Columns and labels:
[1] = system: CFTR; format: cell-based, human; conditions: no LV
Procedure: To analyse the functionality of rSIV.F/HN-CFTR-expressed channels, CFTR-mediated chloride current was measured in an Ussing chamber using rSIV.F/HN-CFTR (vGM058) transduced ALI cultures. First, sodium channels (ENaC) were blocked using amiloride, followed by stimulation of CFTR using forskolin and the change in short circuit current (Δlsc) was calculated (both peak and plateau values). In some experiments, ivacaftor, a small molecule CFTR potentiator which increases channel open probability, was added for additional stimulation of CFTR current. Finally, the chloride current was blocked with CFTR-Inhibitor 172 (FIG. 3D).
To compare the functionality of vGM058 and vGM244, CFTR-mediated chloride current was measured in an Ussing chamber using class II ALI cultures transduced with both vGM058 and vGM244.
To analyse the functionality of rSIV.F/HN-CFTR-expressed channels, CFTR-mediated chloride current was measured in an Ussing chamber using rSIV.F/HN-CFTR (vGM244) transduced class II ALI cultures (Table 3).

[2] = target: CFTR (Homo sapiens, UniProt P13569); format: cell-based; conditions: no LV
Chain of CFTR (Homo sapiens, UniProt P13569) (P13569 whole entry): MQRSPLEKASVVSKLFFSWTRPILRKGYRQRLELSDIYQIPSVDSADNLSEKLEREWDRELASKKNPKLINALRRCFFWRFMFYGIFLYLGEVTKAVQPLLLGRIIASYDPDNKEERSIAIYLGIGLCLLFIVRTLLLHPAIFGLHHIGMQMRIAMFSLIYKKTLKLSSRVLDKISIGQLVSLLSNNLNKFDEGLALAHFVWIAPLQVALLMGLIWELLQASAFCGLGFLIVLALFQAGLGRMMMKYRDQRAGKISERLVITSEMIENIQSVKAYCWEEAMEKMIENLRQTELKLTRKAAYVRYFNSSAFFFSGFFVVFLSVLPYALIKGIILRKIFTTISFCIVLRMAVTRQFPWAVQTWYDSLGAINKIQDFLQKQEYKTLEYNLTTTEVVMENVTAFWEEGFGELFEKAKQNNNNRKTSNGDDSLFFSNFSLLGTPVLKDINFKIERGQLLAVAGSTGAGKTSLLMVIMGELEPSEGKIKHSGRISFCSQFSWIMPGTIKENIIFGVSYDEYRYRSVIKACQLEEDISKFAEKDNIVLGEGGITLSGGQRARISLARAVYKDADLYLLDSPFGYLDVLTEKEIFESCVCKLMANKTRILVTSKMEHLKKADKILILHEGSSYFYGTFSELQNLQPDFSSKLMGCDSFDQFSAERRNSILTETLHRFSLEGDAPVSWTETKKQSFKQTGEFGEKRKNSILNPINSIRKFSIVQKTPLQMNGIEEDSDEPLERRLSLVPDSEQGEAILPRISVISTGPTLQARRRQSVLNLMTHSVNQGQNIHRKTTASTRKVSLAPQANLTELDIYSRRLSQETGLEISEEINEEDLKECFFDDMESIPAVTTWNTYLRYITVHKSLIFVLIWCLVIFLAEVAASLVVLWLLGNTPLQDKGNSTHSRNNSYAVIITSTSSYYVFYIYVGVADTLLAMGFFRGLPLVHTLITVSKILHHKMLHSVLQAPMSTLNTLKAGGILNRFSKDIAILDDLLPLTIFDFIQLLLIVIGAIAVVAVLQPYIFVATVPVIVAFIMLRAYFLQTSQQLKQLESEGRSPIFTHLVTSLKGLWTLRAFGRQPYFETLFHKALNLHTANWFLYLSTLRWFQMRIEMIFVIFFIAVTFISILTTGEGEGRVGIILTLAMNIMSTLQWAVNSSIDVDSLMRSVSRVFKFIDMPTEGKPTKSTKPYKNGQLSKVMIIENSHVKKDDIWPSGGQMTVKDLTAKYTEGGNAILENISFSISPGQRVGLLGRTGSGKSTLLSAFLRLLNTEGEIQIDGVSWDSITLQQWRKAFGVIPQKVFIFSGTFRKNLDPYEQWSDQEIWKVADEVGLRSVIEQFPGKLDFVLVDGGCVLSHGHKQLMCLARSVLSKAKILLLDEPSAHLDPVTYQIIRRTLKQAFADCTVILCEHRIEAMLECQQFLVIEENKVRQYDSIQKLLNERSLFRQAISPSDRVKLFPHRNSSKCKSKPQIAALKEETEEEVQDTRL

[3] = Table 1, Class II F508del/F508del ALI, vGM058 study
[4] = Table 3, Class II F508del/F508del ALI, vGM244 study
[5] = Table 2, Class I CFTR KO ALI, vGM058 study
[6] = Table 4, Class I CFTR KO ALI, vGM244 study

SMILES: CC(C)(C)c1cc(C(C)(C)C)c(NC(=O)c2c[nH]c3ccccc3c2=O)cc1O [Iva, ivacaftor]
- ΔCFTR-inh172peak [1, 3]: −2.1 ± 0.3
- ΔCFTR-inh172plateau [1, 3]: −2.1 ± 0.3
- ΔFskpeak [1, 3]: −0.1 ± 0.3
- ΔFskplateau [1, 3]: −0.1 ± 0.3
- ΔCFTR-inh172peak [1, 4]: −1.6 ± 0.1
- ΔCFTR-inh172plateau [1, 4]: −1.6 ± 0.1
- ΔFskpeak [1, 4]: 1.0 ± 0.3
- ΔFskplateau [1, 4]: 1.0 ± 0.3
- ΔCFTR-inh172peak [2, 5]: −3.0 ± 0.2
- ΔCFTR-inh172plateau [2, 5]: −3.0 ± 0.2
- ΔFskpeak [2, 5]: −1.9 ± 0.1
- ΔFskplateau [2, 5]: −1.9 ± 0.1
- ΔCFTR-inh172peak [2, 6]: −0.2 ± 0.2
- ΔCFTR-inh172plateau [2, 6]: −0.2 ± 0.2
- ΔFskpeak [2, 6]: −0.7 ± 0.2
- ΔFskplateau [2, 6]: −0.7 ± 0.2
